Tests used:
Experiment in all cases: cells
TE-9 = format: functional, cell-based, Homo sapiens; settings: Homo sapiens, TE-9;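 note: cell growth inhibition, measured with a cell viability readout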
Description: SANGER: Inhibition of human TE-9 cell growth in a cell viability assay.

CCRF-CEM = format: functional, cell-based, Homo sapiens; settings: Homo sapiens, CCRF-CEM;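 note: inhibition of CCRF-CEM cell growth, measured by a cell viability assay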
Description: SANGER: Inhibition of human CCRF-CEM cell growth in a cell viability assay.

MS-1 = format: functional, cell-based, Homo sapiens; settings: Homo sapiens, MS-1;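 note: growth inhibition of MS-1 cells, read out by cell viability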
Description: SANGER: Inhibition of human MS-1 cell growth in a cell viability assay.

KS-1 = format: functional, cell-based; settings: Homo sapiens;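 note: growth inhibition of KS-1 cells, read out with a cell viability assay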
Description: SANGER: Inhibition of human KS-1 cell growth in a cell viability assay.

GB-1 = format: functional, cell-based, Homo sapiens; settings: Homo sapiens, GB-1;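 note: growth of GB-1 cells judged by a viability assay, IC50 marks the concentration inhibiting growth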
Description: SANGER: Inhibition of human GB-1 cell growth in a cell viability assay.

NCI-H526 = format: functional, cell-based, Homo sapiens; settings: Homo sapiens, NCI-H526;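 note: growth inhibition of the human NCI-H526 cell line, measured by a cell viability assay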
Description: SANGER: Inhibition of human NCI-H526 cell growth in a cell viability assay.

NB13 = format: functional, cell-based, Homo sapiens; settings: Homo sapiens, NB13;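 note: cell viability readout measuring growth inhibition of human NB13 cells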
Description: SANGER: Inhibition of human NB13 cell growth in a cell viability assay.

SK-MEL-2 = format: functional, cell-based, Homo sapiens; settings: Homo sapiens, SK-MEL-2;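 note: growth inhibition of human SK-MEL-2 cells measured with a cell viability assay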
Description: SANGER: Inhibition of human SK-MEL-2 cell growth in a cell viability assay.

SW684 = format: functional, cell-based, Homo sapiens; settings: Homo sapiens, SW684; read-out: IC50;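 note: growth inhibition of human SW684 cells, measured by a cell viability assay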
Description: SANGER: Inhibition of human SW684 cell growth in a cell viability assay.

NB6 = format: functional, cell-based, Homo sapiens; settings: Homo sapiens, NB6;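 note: growth inhibition of NB6 cells, read out by a cell viability assay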
Description: SANGER: Inhibition of human NB6 cell growth in a cell viability assay.

ES8 = format: functional, cell-based, Homo sapiens; settings: Homo sapiens, ES8;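 note: growth inhibition of human ES8 cells, read out with a cell viability assay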
Description: SANGER: Inhibition of human ES8 cell growth in a cell viability assay.

NOS-1 = format: functional, cell-based, Homo sapiens; settings: Homo sapiens, NOS-1;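 note: growth inhibition of the human NOS-1 cell line, read out with a cell viability assay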
Description: SANGER: Inhibition of human NOS-1 cell growth in a cell viability assay.

ONS-76 = format: functional, cell-based, Homo sapiens; settings: Homo sapiens, ONS-76;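 note: growth inhibition of human ONS-76 cells, read out with a cell viability assay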
Description: SANGER: Inhibition of human ONS-76 cell growth in a cell viability assay.

MMAC-SF = format: functional, cell-based; settings: Homo sapiens;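 note: growth inhibition of human MMAC-SF cells, read out with a cell viability assay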
Description: SANGER: Inhibition of human MMAC-SF cell growth in a cell viability assay.

SJSA-1 = format: functional, cell-based, Homo sapiens; settings: Homo sapiens, SJSA-1;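 note: growth inhibition of human SJSA-1 cells, read out through a cell viability measurement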
Description: SANGER: Inhibition of human SJSA-1 cell growth in a cell viability assay.

GR-ST = format: functional, cell-based, Homo sapiens; settings: Homo sapiens, GR-ST
Description: SANGER: Inhibition of human GR-ST cell growth in a cell viability assay.

LC-2-ad = format: functional, cell-based, Homo sapiens; settings: Homo sapiens, LC-2-ad;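 note: growth inhibition of human LC-2-ad cells, read out with a cell viability assay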
Description: SANGER: Inhibition of human LC-2-ad cell growth in a cell viability assay.

JVM-3 = format: functional, cell-based, Homo sapiens; settings: Homo sapiens, JVM-3;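 note: growth inhibition of human JVM-3 cells, read out with a cell viability assay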
Description: SANGER: Inhibition of human JVM-3 cell growth in a cell viability assay.

NCI-H1838 = format: functional, cell-based, Homo sapiens; settings: Homo sapiens, NCI-H1838;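 note: growth inhibition of NCI-H1838 cells, determined with a cell viability readout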
Description: SANGER: Inhibition of human NCI-H1838 cell growth in a cell viability assay.

MZ7-mel = format: functional, cell-based, Homo sapiens; settings: Homo sapiens, MZ7-mel;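 note: growth inhibition of human MZ7-mel cells, measured by a cell viability assay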
Description: SANGER: Inhibition of human MZ7-mel cell growth in a cell viability assay.

SH-4 = format: functional, cell-based; settings: Homo sapiens;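 note: growth inhibition of SH-4 cells, read out with a cell viability assay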
Description: SANGER: Inhibition of human SH-4 cell growth in a cell viability assay.

KNS-42 = format: functional, cell-based; settings: Homo sapiens;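 note: growth inhibition of KNS-42 cells, read out with a cell viability assay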
Description: SANGER: Inhibition of human KNS-42 cell growth in a cell viability assay.

KURAMOCHI = format: functional, cell-based, Homo sapiens; settings: Homo sapiens, KURAMOCHI;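 note: growth inhibition of KURAMOCHI cells, read out with a cell viability assay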
Description: SANGER: Inhibition of human KURAMOCHI cell growth in a cell viability assay.

HCE-4 = format: functional, cell-based; settings: Homo sapiens;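 note: cell viability assay measuring inhibition of growth in the human HCE-4 cell line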
Description: SANGER: Inhibition of human HCE-4 cell growth in a cell viability assay.

HD-MY-Z = format: functional, cell-based, Homo sapiens; settings: Homo sapiens, HD-MY-Z;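 note: growth inhibition of HD-MY-Z cells, read out with a cell viability assay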
Description: SANGER: Inhibition of human HD-MY-Z cell growth in a cell viability assay.

U-266 = format: functional, cell-based, Homo sapiens; settings: Homo sapiens, U-266
Description: SANGER: Inhibition of human U-266 cell growth in a cell viability assay.

NMC-G1 = format: functional, cell-based, Homo sapiens; settings: Homo sapiens, NMC-G1;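 note: growth inhibition of the NMC-G1 cell line, measured with a cell viability read-out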
Description: SANGER: Inhibition of human NMC-G1 cell growth in a cell viability assay.

MN-60 = format: functional, cell-based, Homo sapiens; settings: Homo sapiens, MN-60;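 note: growth inhibition of the MN-60 cell line, determined with a cell viability assay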
Description: SANGER: Inhibition of human MN-60 cell growth in a cell viability assay.

TK-10 = format: functional, cell-based, Homo sapiens; settings: Homo sapiens, TK-10;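 note: growth inhibition of TK-10 cells, read out in a cell viability assay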
Description: SANGER: Inhibition of human TK10 cell growth in a cell viability assay.

KGN = format: functional, cell-based, Homo sapiens; settings: Homo sapiens, KGN;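 note: growth inhibition of KGN cells, read out with a cell viability assay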
Description: SANGER: Inhibition of human KGN cell growth in a cell viability assay.

KG-1 = format: functional, cell-based, Homo sapiens; settings: Homo sapiens, KG-1;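 note: growth inhibition of KG-1 cells, read out by a cell viability assay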
Description: SANGER: Inhibition of human KG-1 cell growth in a cell viability assay.

LU-134-A = format: functional, cell-based, Homo sapiens; settings: Homo sapiens, LU-134-A
Description: SANGER: Inhibition of human LU-134-A cell growth in a cell viability assay.

LAMA-84 = format: functional, cell-based, Homo sapiens; settings: Homo sapiens, LAMA-84;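 note: growth inhibition of LAMA-84 cells, read out with a cell viability assay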
Description: SANGER: Inhibition of human LAMA-84 cell growth in a cell viability assay.

VA-ES-BJ = format: functional, cell-based, Homo sapiens; settings: Homo sapiens, VA-ES-BJ;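 note: growth inhibition of the VA-ES-BJ cell line, read out by a cell viability assay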
Description: SANGER: Inhibition of human VA-ES-BJ cell growth in a cell viability assay.

SF-126 = format: functional, cell-based, Homo sapiens; settings: Homo sapiens, SF-126;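 note: growth inhibition of human SF126 cells, read out with a cell viability assay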
Description: SANGER: Inhibition of human SF126 cell growth in a cell viability assay.

8-MG-BA = format: functional, cell-based, Homo sapiens; settings: Homo sapiens, 8-MG-BA;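 note: growth inhibition of 8-MG-BA cells, read out with a cell viability assay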
Description: SANGER: Inhibition of human 8-MG-BA cell growth in a cell viability assay.

MHH-PREB-1 = format: functional, cell-based, Homo sapiens; settings: Homo sapiens, MHH-PREB-1;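 note: cell viability assay measuring inhibition of proliferation of human MHH-PREB-1 cells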
Description: SANGER: Inhibition of human MHH-PREB-1 cell growth in a cell viability assay.

A101D = format: functional, cell-based, Homo sapiens; settings: Homo sapiens, A101D;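 note: growth inhibition of the cell line, measured with a viability assay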
Description: SANGER: Inhibition of human A101D cell growth in a cell viability assay.

LNCaP-Clone-FGC = format: functional, cell-based, Homo sapiens; settings: Homo sapiens, LNCaP-Clone-FGC
Description: SANGER: Inhibition of human LNCaP-Clone-FGC cell growth in a cell viability assay.

GI-ME-N = format: functional, cell-based, Homo sapiens; settings: Homo sapiens, GI-ME-N;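 note: growth inhibition of human GI-ME-N cells, read out with a cell viability assay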
Description: SANGER: Inhibition of human GI-ME-N cell growth in a cell viability assay.

697 = format: functional, cell-based, Homo sapiens; settings: Homo sapiens
Description: SANGER: Inhibition of human 697 cell growth in a cell viability assay.

CAS-1 = format: functional, cell-based, Homo sapiens; settings: Homo sapiens, CAS-1;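 note: growth inhibition of CAS-1 cells, measured with a cell viability assay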
Description: SANGER: Inhibition of human CAS-1 cell growth in a cell viability assay.

D283 Med = format: functional, cell-based, Homo sapiens; settings: Homo sapiens, D283 Med
Description: SANGER: Inhibition of human D-283MED cell growth in a cell viability assay.

K5 = format: functional, cell-based, Homo sapiens; settings: Homo sapiens, K5
Description: SANGER: Inhibition of human K5 cell growth in a cell viability assay.

HCE-T = format: functional, cell-based, Homo sapiens; settings: Homo sapiens, HCE-T;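 note: cell viability assay read-out, reporting inhibition of HCE-T cell growth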
Description: SANGER: Inhibition of human HCE-T cell growth in a cell viability assay.

NCI-H1092 = format: functional, cell-based, Homo sapiens; settings: Homo sapiens, NCI-H1092;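 note: cell growth inhibition measured with a cell viability assay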
Description: SANGER: Inhibition of human NCI-H1092 cell growth in a cell viability assay.

`O=C(NCCCNc1nc(Nc2cccc(NC(=O)N3CCCC3)c2)ncc1I)c1cccs1` [BX-795] showed an IC50 (TE-9) greater than 5 µM, an IC50 (CCRF-CEM) greater than 5 µM and an IC50 (MS-1) greater than 5 µM. For the same compound, the IC50 (KS-1) was 1.83 µM, the IC50 (GB-1) was 4.64 µM and the IC50 (NCI-H526) was greater than 5 µM. It also gave an IC50 (NB13) of 4.02 µM, an IC50 (SK-MEL-2) of 4.02 µM and an IC50 (SW684) greater than 5 µM. It also gave an IC50 (NB6) of 2.74 µM, an IC50 (ES8) of 0.843 µM and an IC50 (NOS-1) greater than 5 µM. For the same compound, the IC50 (ONS-76) was 4.08 µM, the IC50 (MMAC-SF) was greater than 5 µM and the IC50 (SJSA-1) was greater than 5 µM. It also gave an IC50 (GR-ST) of 4.98 µM, an IC50 (LC-2-ad) of 1.47 µM and an IC50 (JVM-3) of 1.86 µM. It also gave an IC50 (NCI-H1838) greater than 5 µM, an IC50 (MZ7-mel) greater than 5 µM and an IC50 (SH-4) greater than 5 µM. For the same compound, the IC50 (KNS-42) was greater than 5 µM, the IC50 (KURAMOCHI) was greater than 5 µM and the IC50 (HCE-4) was greater than 5 µM. For the same compound, the IC50 (HD-MY-Z) was 3.87 µM, the IC50 (U-266) was greater than 5 µM and the IC50 (NMC-G1) was greater than 5 µM. The IC50 (MN-60) was 3.59 µM, the IC50 (TK-10) was greater than 5 µM and the IC50 (KGN) was 2.23 µM. For the same compound, the IC50 (KG-1) was 2.28 µM, the IC50 (LU-134-A) was 3.43 µM and the IC50 (LAMA-84) was 1.77 µM. It also gave an IC50 (VA-ES-BJ) of 0.985 µM, an IC50 (SF-126) of 2.44 µM and an IC50 (8-MG-BA) of 1.96 µM. For the same compound, the IC50 (MHH-PREB-1) was 2.81 µM, the IC50 (A101D) was 3.64 µM and the IC50 (LNCaP-Clone-FGC) was greater than 5 µM. The IC50 (GI-ME-N) was 1.87 µM, the IC50 697 was 1.02 µM and the IC50 (CAS-1) was 3.02 µM. It also gave an IC50 (D283 Med) of 1.04 µM, an IC50 (K5) greater than 5 µM and an IC50 (HCE-T) greater than 5 µM. The IC50 (NCI-H1092) was greater than 5 µM.

Source: ChEMBL document CHEMBL1201861, “Genomics of Drug Sensitity in Cancer screening data, Wellcome Trust Sanger Institute”
